According to patent US10392368B2, “Pyrazolo and triazolo bicyclic compounds as JAK kinase inhibitors” (THERAVANCE BIOPHARMA R&D IP, LLC, priority 2017, dated 2019):

Columns and labels:
[1] = test system: IL-2 stimulated pSTAT5 in CD4+ T cells; assay: Inhibition of IL-2 stimulated pSTAT5 in CD4+ T cells isolated from murine splenocytes; format: cell-based; details: Mus musculus, AlphaLisa, read-out: pIC50, inhibition of IL-2 stimulated pSTAT5 (converted)
Method: The potency of test compounds for inhibition of interleukin-2 (IL-2) stimulated STAT5 phosphorylation was measured in the CD4+ T cells isolated from murine splenocytes using AlphaLisa. Because IL-2 signals through JAK3, this assay provides a measure of JAK3 cellular potency in mouse.
Phosphorylated STAT5 was measured via the AlphaLISA SureFire Ultra pSTAT5 (Tyr694/699) kit (PerkinElmer).
CD4+ T cells were isolated from murine splenocytes via negative selection on a magnetic column (Miltnyi Biotec) and re-suspended in assay media (phenol red-free DMEM (Life Technologies) supplemented with 10% FBS (ATCC)). Cells were seeded at 50,000 cells/well in assay media (2 μL/well). Compounds were serially diluted in DMSO and diluted to 2× final concentration in assay media. Compound was added (4 μl/well) and the cells incubated at 37° C., 5% CO2 for 1 hour, followed by the addition of IL-2 (R&D Systems; final concentration 7 ng/ml) in pre-warmed assay media (2 μL) for 30 minutes. After cytokine stimulation, cells were lysed with 2 μl of 5× AlphaLisa Lysis Buffer (PerkinElmer). The lysate was shaken at 900 rpm for 10 minutes at room temperature (RT). Phosphorylated STAT5 was measured via the pSTAT5 AlphaLisa kit (PerkinElmer). Freshly prepared acceptor bead mixture was dispensed onto lysate (5 ul) under green filtered <100 lux light. Plates were shaken at 900 rpm for 2 mins, briefly spun down, and incubated for 2 hrs at RT in the dark. Donor beads were dispensed (5 μl) under green filtered <100 lux light. Plates were shaken at 900 rpm for 2 mins, briefly spun down, and incubated overnight at RT in the dark. Luminescence was measured with excitation at 689 nm and emission at 570 nm using an EnVision plate reader (PerkinElmer) under green filtered <100 lux light.
To determine the inhibitory potency of test compounds in response to IL-2, the average emission intensity of beads bound to pSTAT5 was measured in primary CD4+ T cells isolated from murine splenocytes. IC50 values were determined from analysis of the inhibition curves of signal intensity vs compound concentration. Data are expressed as pIC50 (negative decadic logarithm IC50) values (mean±standard deviation).

[2] = Colon and plasma mouse pharmacokinetics; format: in vivo; details: male Balb/c mice, 10 mg/kg PO, 0.5, 2 and 6 hours
Method: 6 male Balb/c mice were administered 10 mg/kg of compound in 1% HPMC+0.1% Tween-80 by PO administration. At 0.5, 2 and 6 hours after dose administration, animals were anesthetized, and terminal blood samples were collected by cardiac puncture, followed by collection of colon contents and colon tissue.
Blood samples were collected into K2EDTA and stored on wet ice until processed to plasma by centrifugation (12000 rpm at 4° C.). Plasma samples were transferred to cluster tubes and placed on dry ice prior to freezer storage. The colon contents from each animal were collected at each terminal blood collection time point. The colon tissues were flushed with saline and patted dry. The colon and colon content tissues were homogenized using sterile water containing 0.1% formic acid 9:1 (water:tissue, v/w). The homogenized tissues and colon contents were transferred to cluster tubes and placed on dry ice prior to freezer storage. All samples were analyzed using LC/MS/MS against analytical standards.
The composite pharmacokinetic parameters of the compounds were determined by non-compartmental analysis using Phoenix WinNonlin Version 6 (Certara, St. Louis, Mo.) and using mean values from 2 animals/time point. For plasma concentrations below the quantification limit (BQL), the lowest concentration measurable or the BLOQ (below limit of quantification) was used.
A colon to plasma ratio was determined as the ratio of the colon AUC to the plasma AUC.

[3] = test system: oxazolone-induced colitis; assay: Mouse model of oxazolone-induced colitis; format: in vivo; details: 3 mg/kg (PO, BID)
Method: Oxazolone-induced colitis is an experimental model that has a histological resemblance to human ulcerative colitis (Heller et al. Immunology, 2002, 17, 629-638). Adult BALB/C mice from Harlan were used in the assay. On day 1, animals were lightly anesthetized with isoflurane and the hairs between the shoulder were carefully removed before oxazolone (4%, 150 μL, 4:1 acetone:olive oil formulation) or vehicle solution was slowly applied for skin sensitization. Seven days after skin sensitization, the mice were fasted around 6 hours prior, anesthetized with ketamine/xylazine injection, and a 1 mL syringe equipped with a 3.5-F catheter, filled with oxazolone solution, was inserted carefully about 4 cm into the colon of the mouse. Following insertion, 50 μL of the oxazolone solution (0.8% in 1:1 ethanol:water formulation) was injected very slowly (over 30 sec using an injection pump) into the colon. Drug treatment (PO, QD or BID or TID) or vehicle was initiated a day prior to the oxazolone intrarectal (IR) challenge. Two-day post oxazolone intrarectal challenge, the disease was assessed by treatment-blinded experimenters for each mouse according to the criteria score: stool consistency score (0, normal; 2, loose; 4, diarrhea), gross bleeding score (0, absence; 2, blood tinged; 4, presence); Combined stool score endpoint=stool consistency score+stool blood score.
Select compounds were tested in the assay.

[4] = test system: IL-2 induced pSTAT5 in thymus; assay: Systemic target engagement: murine model of IL-2 induced pSTAT5 induction in thymus; format: in vivo, mouse; details: PO, 10, 30 and 50 mg/kg
From the text: IL-2 is an important cytokine underlying the pathophysiology of gastro-intestinal diseases such as […] bowel disease (IBD; Guan and Zhang. Mediators Inflamm, 2017; 4810258). IL-2 binds to cell surface receptors activating members of the Janus family of kinases (JAK), specifically JAK3, which then phosphorylates STAT5 and subsequently activates further transcription pathways. In this model, a dose of IL-2 was delivered systemically to mice to induce the phosphorylation of STAT5 (pSTAT5) which was then measured as the endpoint.
Adult male Balb/c mice from Harlan were used in the assay. Animals were administered test compound via oral gavage (PO, 10 or 30 mg/kg for single dose studies; 10-60 mg/kg for dose response studies) on the afternoon of the day prior to study and then in the morning on the day of study. Two hours after the second PO dose administration, mice were injected intraperitoneally (i.p.) with 100 μl of an appropriate IL-2 dose (for a total of 1-5 μg/mouse depending upon IL-2 batch; R&D Systems). 90-120 minutes after IL-2 insult, thymus samples were harvested.

splenic NK cells = assay: Immunosuppression effects in mouse splenic natural killer (NK) cells; details: positive control, 30 mg/kg PO, BID
Method: Select compounds were assessed in the mouse splenic cell model following the same treatment paradigm used in the oxazolone-induced colitis model (assay 8).
Adult male Balb/C mice from Harlan were used for the study. The test compound and a Jak3 covalent inhibitor standard 2-propen-1-one, 1-[(2S,5R)-2-methyl-5-(7H-pyrrolo[2,3-d]pyrimidin-4-ylamino)-1-piperidinyl] (30 mg/kg, BID) as a positive control, were dosed orally for three days to naïve mice. Spleens were harvested up to 4 hours post last dose and crushed immediately for cell subtype staining. Prior to fixation, fluorophore-labelled antibodies for CD19 (FITC; B cells), CD3e (PE; pan T cells) and CD49e (APC; NK cells) were incubated with splenocyte samples from each animal to allow for simultaneous, multiple subtype % analysis on the flow cytometer. The number of total spleen cells for each animal was measured by Scepter™ 2.0 Handheld Automated Cell Counter.
The absolute number of lymphocyte subtype population (e.g., splenic B, T and NK cells) was calculated from the percentage of each subtype times the total spleen cells for each animal. A one-way ANOVA, with Fisher's LSD post hoc test, was used to compare the splenic lymphocytes number of the vehicle and test compound groups. The a level was set at p<0.05. Data were presented as the mean±SEM for each group.

SMILES	IC50 [1]	Kp ([2]; mouse, colon tissue / plasma, read-out: colon to plasma ratio (colon AUC to plasma AUC))	combined stool score endpoint as compared with vehicle treated animals [3]	colon to plasma ratio (colon AUC to plasma AUC) [2]	inhibition of pSTAT5 induction in the thymus [4]	Splenic NK cell counts (splenic NK cells)
CN(C)C/C=C/C(=O)N1CC(C(C)(C)Oc2cc(-c3ccc(O)c(F)c3)cc3[nH]ncc23)C1 [Compound 19, (E)-1-(3-(2-((6-(3-fluoro-4-hydroxyphenyl)-1H-indazol-4-yl)oxy)propan-2-yl)azetidin-1-yl)-4-(dimethylamino)but-2-en-1-one]	< 1000 nM	> 200	statistically significant decrease	–	–	–
C=CC(=O)N1C[C@H](Nc2ncnc3[nH]ccc23)CC[C@@H]1C [PF-06651600, 2-propen-1-one, 1-[(2S,5R)-2-methyl-5-(7H-pyrrolo[2,3-d]pyrimidin-4-ylamino)-1-piperidinyl], reference compound]	–	–	–	2.8	significant inhibition	significantly decreased
